Where “and” joins values, the source holds several entries; their conditions need not be identical. Equal entries are not always repeated.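 Where inhibition never reached the appropriate level, the endpoint shown equals the highest concentration tested. Otherwise, values were interpolated linearly from a five-concentration, 48-hour dose response in 96-well plates. The concentration for 50% growth inhibition is given as GI50. TGI: concentration producing complete growth inhibition.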
What was measured:
Test in all cases: NCI tumour cell line growth inhibition, 48 h
786-0 renal = tested on: 786-0 renal
A498 renal = tested on: A498 renal
A549 NSCLC = tested on: A549 NSCLC
ACHN renal = tested on: ACHN renal
CAKI-1 renal = tested on: CAKI-1 renal
CCRF-CEM leukemia = tested on: CCRF-CEM leukemia
COLO 205 colon = tested on: COLO 205 colon
DLD-1 colon = tested on: DLD-1 colon
DMS 114 small cell lung = tested on: DMS 114 small cell lung
DMS 273 small cell lung = tested on: DMS 273 small cell lung
EKVX NSCLC = tested on: EKVX NSCLC
HCC-2998 colon = tested on: HCC-2998 colon
HCT-116 colon = tested on: HCT-116 colon
HCT-15 colon = tested on: HCT-15 colon
HL-60(TB) leukemia = tested on: HL-60(TB) leukemia
HOP-18 NSCLC = tested on: HOP-18 NSCLC
HOP-62 NSCLC = tested on: HOP-62 NSCLC
HOP-92 NSCLC = tested on: HOP-92 NSCLC
HT29 colon = tested on: HT29 colon
IGROV1 ovarian = tested on: IGROV1 ovarian
K-562 leukemia = tested on: K-562 leukemia
KM12 colon = tested on: KM12 colon
KM20L2 colon = tested on: KM20L2 colon
LOX IMVI melanoma = tested on: LOX IMVI melanoma
LXFL 529 NSCLC = tested on: LXFL 529 NSCLC
M14 melanoma = tested on: M14 melanoma
M19-MEL melanoma = tested on: M19-MEL melanoma
MALME-3M melanoma = tested on: MALME-3M melanoma
MOLT-4 leukemia = tested on: MOLT-4 leukemia
NCI-H226 lung = tested on: NCI-H226 lung
NCI-H23 lung = tested on: NCI-H23 lung
NCI-H460 lung = tested on: NCI-H460 lung
NCI-H522 lung = tested on: NCI-H522 lung
OVCAR-3 ovarian = tested on: OVCAR-3 ovarian
OVCAR-4 ovarian = tested on: OVCAR-4 ovarian
OVCAR-5 ovarian = tested on: OVCAR-5 ovarian
OVCAR-8 ovarian = tested on: OVCAR-8 ovarian
RPMI-8226 leukemia = tested on: RPMI-8226 leukemia
RXF 393 renal = tested on: RXF 393 renal
RXF-631 renal = tested on: RXF-631 renal
SF-268 CNS = tested on: SF-268 CNS
SF-295 CNS = tested on: SF-295 CNS
SF-539 CNS = tested on: SF-539 CNS
SK-MEL-2 melanoma = tested on: SK-MEL-2 melanoma
SK-MEL-28 melanoma = tested on: SK-MEL-28 melanoma
SK-MEL-5 melanoma = tested on: SK-MEL-5 melanoma
SK-OV-3 ovarian = tested on: SK-OV-3 ovarian
SN12C renal = tested on: SN12C renal
SNB-19 CNS = tested on: SNB-19 CNS
SNB-75 CNS = tested on: SNB-75 CNS
SNB-78 CNS = tested on: SNB-78 CNS
SR leukemia = tested on: SR leukemia
SW-620 colon = tested on: SW-620 colon
TK-10 renal = tested on: TK-10 renal
U251 CNS = tested on: U251 CNS
UACC-257 melanoma = tested on: UACC-257 melanoma
UACC-62 melanoma = tested on: UACC-62 melanoma
UO-31 renal = tested on: UO-31 renal
XF 498 CNS = tested on: XF 498 CNS

## CC(=O)OC1COC(N2CCc3ccccc32)C(OC(C)=O)C1OC(C)=O (stereo not given)
786-0 renal
  TGI: > 100 µM
A498 renal
  TGI: > 100 µM
A549 NSCLC
  TGI: > 100 µM
ACHN renal
  TGI: > 100 µM
CAKI-1 renal
  TGI: > 100 µM
CCRF-CEM leukemia
  TGI: > 100 µM
COLO 205 colon
  TGI: > 100 µM
DLD-1 colon
  TGI: > 100 µM
DMS 114 small cell lung
  TGI: > 100 µM
DMS 273 small cell lung
  TGI: > 100 µM
EKVX NSCLC
  TGI: > 100 µM
HCC-2998 colon
  TGI: > 100 µM
HCT-116 colon
  TGI: > 100 µM
HCT-15 colon
  TGI: > 100 µM
HL-60(TB) leukemia
  GI50: 89.3 µM and 28.2 µM
  TGI: > 100 µM
HOP-18 NSCLC
  TGI: > 100 µM
HOP-62 NSCLC
  TGI: > 100 µM
HOP-92 NSCLC
  GI50: > 100 µM
  TGI: > 100 µM
HT29 colon
  TGI: > 100 µM
IGROV1 ovarian
  TGI: > 100 µM
K-562 leukemia
  TGI: > 100 µM
KM12 colon
  TGI: > 100 µM
KM20L2 colon
  TGI: > 100 µM
LOX IMVI melanoma
  TGI: > 100 µM
LXFL 529 NSCLC
  TGI: > 100 µM
M14 melanoma
  TGI: > 100 µM
M19-MEL melanoma
  TGI: > 100 µM
MALME-3M melanoma
  TGI: > 100 µM
MOLT-4 leukemia
  TGI: > 100 µM
NCI-H226 lung
  TGI: > 100 µM
NCI-H23 lung
  TGI: > 100 µM
NCI-H460 lung
  TGI: > 100 µM
NCI-H522 lung
  TGI: > 100 µM
OVCAR-3 ovarian
  TGI: > 100 µM
OVCAR-4 ovarian
  TGI: > 100 µM
OVCAR-5 ovarian
  TGI: > 100 µM
OVCAR-8 ovarian
  TGI: > 100 µM
RPMI-8226 leukemia
  TGI: > 100 µM
RXF 393 renal
  TGI: > 100 µM
RXF-631 renal
  TGI: > 100 µM
SF-268 CNS
  TGI: > 100 µM
SF-295 CNS
  TGI: > 100 µM
SF-539 CNS
  TGI: > 100 µM
SK-MEL-2 melanoma
  TGI: > 100 µM
SK-MEL-28 melanoma
  TGI: > 100 µM
SK-MEL-5 melanoma
  TGI: > 100 µM
SK-OV-3 ovarian
  TGI: > 100 µM
SN12C renal
  TGI: > 100 µM
SNB-19 CNS
  TGI: > 100 µM
SNB-75 CNS
  GI50: > 100 µM
  TGI: > 100 µM
SNB-78 CNS
  TGI: > 100 µM
SR leukemia
  TGI: > 100 µM
SW-620 colon
  TGI: > 100 µM
TK-10 renal
  TGI: > 100 µM
U251 CNS
  TGI: > 100 µM
UACC-257 melanoma
  TGI: > 100 µM
UACC-62 melanoma
  TGI: > 100 µM
UO-31 renal
  TGI: > 100 µM
XF 498 CNS
  TGI: > 100 µM

## Cc1ccc(NC(=O)OCC(COc2ccc(Cl)cc2)OC(=O)Nc2ccc(C)cc2)cc1 (stereo not given)
A498 renal
  TGI: 60.4 µM
A549 NSCLC
  TGI: > 100 µM
ACHN renal
  TGI: > 100 µM
CAKI-1 renal
  TGI: 57 µM
CCRF-CEM leukemia
  TGI: > 100 µM
COLO 205 colon
  TGI: > 100 µM
DLD-1 colon
  TGI: > 100 µM
DMS 114 small cell lung
  TGI: 98.8 µM
DMS 273 small cell lung
  TGI: 66.4 µM
EKVX NSCLC
  TGI: > 100 µM
HCC-2998 colon
  TGI: > 100 µM
HCT-116 colon
  TGI: > 100 µM
HCT-15 colon
  TGI: > 100 µM
HL-60(TB) leukemia
  TGI: 27.9 µM
HOP-18 NSCLC
  TGI: > 100 µM
HOP-62 NSCLC
  TGI: > 100 µM
HOP-92 NSCLC
  TGI: 31 µM
HT29 colon
  TGI: 71.7 µM
IGROV1 ovarian
  TGI: > 100 µM
K-562 leukemia
  TGI: 60.4 µM
KM12 colon
  TGI: > 100 µM
KM20L2 colon
  TGI: > 100 µM
LOX IMVI melanoma
  TGI: 96.9 µM
LXFL 529 NSCLC
  TGI: > 100 µM
M14 melanoma
  TGI: 63.8 µM
M19-MEL melanoma
  TGI: > 100 µM
MALME-3M melanoma
  TGI: 54.2 µM
MOLT-4 leukemia
  TGI: > 100 µM
NCI-H226 lung
  TGI: 67.9 µM
NCI-H23 lung
  TGI: > 100 µM
NCI-H460 lung
  TGI: > 100 µM
NCI-H522 lung
  TGI: > 100 µM
OVCAR-3 ovarian
  TGI: 61.8 µM
OVCAR-4 ovarian
  TGI: 73.6 µM
OVCAR-5 ovarian
  TGI: > 100 µM
OVCAR-8 ovarian
  TGI: > 100 µM
RPMI-8226 leukemia
  TGI: > 100 µM
RXF 393 renal
  TGI: 43.1 µM
RXF-631 renal
  TGI: 24.9 µM
SF-268 CNS
  TGI: > 100 µM
SF-295 CNS
  TGI: 80.6 µM
SF-539 CNS
  TGI: 52.3 µM
SK-MEL-2 melanoma
  TGI: 58.4 µM
SK-MEL-28 melanoma
  TGI: > 100 µM
SK-MEL-5 melanoma
  TGI: > 100 µM
SK-OV-3 ovarian
  TGI: > 100 µM
SN12C renal
  TGI: > 100 µM
SNB-19 CNS
  TGI: 57.3 µM
SNB-75 CNS
  TGI: 36.9 µM
SNB-78 CNS
  TGI: 82.5 µM
SR leukemia
  TGI: > 100 µM
SW-620 colon
  TGI: > 100 µM
TK-10 renal
  TGI: 96.9 µM
U251 CNS
  TGI: > 100 µM
UACC-257 melanoma
  TGI: > 100 µM
UACC-62 melanoma
  TGI: > 100 µM
UO-31 renal
  TGI: > 100 µM
XF 498 CNS
  TGI: 86.7 µM
